Reference: PMC6028718, “Lanthanide-Dependent Methanol Dehydrogenases of XoxF4 and XoxF5 Clades Are Differentially Distributed Among Methylotrophic Bacteria and They Reveal Different Biochemical Properties” (Frontiers in Microbiology, 2018)

These compounds were tested on T1, XoxF5 (assay: PMS-mediated DCPIP reduction at […] nm). Details: pH 9.0, 45 mM NH4Cl, ~26°C, 1 mM PMS, 150 μM DCPIP; Ce3+-grown enzyme; read-out: Methylomonas sp. LW13 XoxF5 / Km.
T1 construct: His-tagged, expressed in native host Methylomonas sp; LW13 (wild-type) grown with Ce3+; Ni-NTA purified
Assay type: biochemical

Km | SMILES
85 ± 44 µM | CCO [Ethanol]
40 ± 37 µM | CCCCCCO [Hexanol]
96 ± 70 µM | CCCCO [Butanol]

SMILES | Km
CO [Methanol] | 39 ± 11 µM
